From ChEMBL document CHEMBL4177721, “Synthesis, antitumor activity, and cytotoxicity of 4-substituted 1-benzyl-5-diphenylstibano-1H-1,2,3-triazoles” (Bioorg Med Chem Lett, 2018)
Values belong to the molecule of their own block, whether it stands above or below them. The source made the active and inactive calls. The calls are words filed in the database; no cut-off is given here.

Experiments:
DLD-1 [1] = assay: Antitumor activity against human DLD1 cells incubated for 72 hrs by MTT assay; format: functional, cell-based; conditions: DLD-1, 72 h
KB [2] = assay: Antitumor activity against human KB cells incubated for 72 hrs by MTT assay; format: functional, cell-based
HL-60 [3] = assay: Antitumor activity against human HL60 cells incubated for 72 hrs by MTT assay; format: functional, cell-based; conditions: HL-60, 72 h
MCF7 [4] = assay: Antitumor activity against human MCF7 cells incubated for 72 hrs by MTT assay; format: functional, cell-based; conditions: MCF7, 72 h
HT-1080 [5] = assay: Antitumor activity against human HT1080 cells incubated for 72 hrs by MTT assay; format: functional, cell-based; conditions: HT-1080, 72 h
B16-F10 [6] = assay: Antitumor activity against mouse B16F10 cells incubated for 72 hrs by MTT assay; format: functional, cell-based; conditions: B16-F10, 72 h
P388 [7] = assay: Antitumor activity against mouse P388 cells incubated for 72 hrs by MTT assay; format: functional, cell-based; conditions: P388, 72 h
[8] = Cytotoxicity against bovine aorta vascular endothelial cells assessed as reduction in cell viability incubated for 24 hrs by MTT assay; format: cell-based, Bos taurus; conditions: cattle
NUGC-3 [9] = assay: Antitumor activity against human NUGC3 cells incubated for 72 hrs by MTT assay; format: functional, cell-based; conditions: NUGC-3, 72 h
P388 [10] = assay: Antitumor activity against mouse P388 cells at 0.5 uM incubated for 72 hrs by MTT assay; format: functional, cell-based
HL-60 [11] = assay: Antitumor activity against human HL60 cells at 0.5 uM incubated for 72 hrs by MTT assay; format: functional, cell-based
NUGC-3 [12] = assay: Antitumor activity against human NUGC3 cells at 0.5 uM incubated for 72 hrs by MTT assay; format: functional, cell-based
MCF7 [13] = assay: Antitumor activity against human MCF7 cells at 0.5 uM incubated for 72 hrs by MTT assay; format: functional, cell-based
KB [14] = assay: Antitumor activity against human KB cells at 0.5 uM incubated for 72 hrs by MTT assay; format: functional, cell-based
B16-F10 [15] = assay: Antitumor activity against mouse B16F10 cells at 0.5 uM incubated for 72 hrs by MTT assay; format: functional, cell-based
HT-1080 [16] = assay: Antitumor activity against human HT1080 cells at 0.5 uM incubated for 72 hrs by MTT assay; format: functional, cell-based
DLD-1 [17] = assay: Antitumor activity against human DLD1 cells at 0.5 uM incubated for 72 hrs by MTT assay; format: functional, cell-based

Molecule: CCCCc1cn(Cc2ccccc2)nn1
IC50 (DLD-1 [1]): > 100 µM
IC50 (KB [2]): > 100 µM
IC50 (HL-60 [3]): > 100 µM
IC50 (MCF7 [4]): > 100 µM
IC50 (HT-1080 [5]): > 100 µM
IC50 (B16-F10 [6]): 421 µM
IC50 (P388 [7]): 217 µM
CC50 at 24 h [8]: > 100 µM
IC50 (NUGC-3 [9]): > 100 µM

Molecule: C1=C(c2cn(Cc3ccccc3)nn2)CCCC1
IC50 (DLD-1 [1]): > 100 µM
IC50 (KB [2]): > 100 µM
IC50 (HL-60 [3]): 171 µM
IC50 (MCF7 [4]): > 100 µM
IC50 (HT-1080 [5]): 219 µM
IC50 (B16-F10 [6]): 45.5 µM
IC50 (P388 [7]): 49.6 µM
CC50 at 24 h [8]: > 100 µM
IC50 (NUGC-3 [9]): > 100 µM

Molecule: 1-Benzyl-4-(p-tolyl)-5-(diphenylstibano)-1H-1,2,3-triazole
Activity (P388 [10]): Active
Activity (HL-60 [11]): Active
Activity (NUGC-3 [12]): Active
Activity (MCF7 [13]): Active
Activity (KB [14]): Active
Activity (B16-F10 [15]): Active
Activity (HT-1080 [16]): Active
Activity (DLD-1 [17]): Active

Second part, led by results:

IC50 (DLD-1 [1]): 74.3 µM
IC50 (KB [2]): 60.2 µM
IC50 (HL-60 [3]): 171 µM
IC50 (MCF7 [4]): 162 µM
IC50 (HT-1080 [5]): 57.7 µM
IC50 (B16-F10 [6]): 35.4 µM
IC50 (P388 [7]): 17.5 µM
Molecule: FC(F)(F)c1ccc(-c2cn(Cc3ccccc3)nn2)cc1
CC50 at 24 h [8]: > 100 µM
IC50 (NUGC-3 [9]): 81 µM

IC50 (DLD-1 [1]): > 100 µM
IC50 (KB [2]): > 100 µM
IC50 (HL-60 [3]): > 100 µM
IC50 (MCF7 [4]): 490 µM
IC50 (HT-1080 [5]): 651 µM
IC50 (B16-F10 [6]): 96.1 µM
IC50 (P388 [7]): 99.1 µM
Molecule: c1ccc(Cn2cc(-c3ccccc3)nn2)cc1
CC50 at 24 h [8]: > 100 µM
IC50 (NUGC-3 [9]): 836 µM

IC50 (DLD-1 [1]): 139 µM
IC50 (KB [2]): 86.6 µM
IC50 (HL-60 [3]): > 100 µM
IC50 (MCF7 [4]): 231 µM
IC50 (HT-1080 [5]): 146 µM
IC50 (B16-F10 [6]): 88.5 µM
IC50 (P388 [7]): 83.8 µM
Molecule: COc1ccc(-c2cn(Cc3ccccc3)nn2)cc1
CC50 at 24 h [8]: > 100 µM
IC50 (NUGC-3 [9]): 158 µM

IC50 (DLD-1 [1]): 102 µM
IC50 (KB [2]): 79.5 µM
IC50 (HL-60 [3]): > 100 µM
IC50 (MCF7 [4]): 253 µM
IC50 (HT-1080 [5]): 84.4 µM
IC50 (B16-F10 [6]): 66.4 µM
IC50 (P388 [7]): 94.1 µM
Molecule: Cc1ccc(-c2cn(Cc3ccccc3)nn2)cc1
CC50 at 24 h [8]: > 100 µM
IC50 (NUGC-3 [9]): 129 µM
